From US20210251229A1, “PLANT REGULATOR COMPOSITIONS” (Suntton Company Limited, priority 2020, published 2021)

Columns and labels:
Assay type in all cases: in vivo
[1] = tested on: spring wheat (Scotia variety); test: Spring wheat (Scotia variety) field trial, Arnprior, Ontario: spray at late booting stage, yield; conditions: EBR 0.05 ppm applied with Ethephon 0.18%
Description: A spring wheat (Scotia variety) trial is carried out in Arnprior, Ontario, Canada. Typically, Ethephon alone has been used to reduce lodging in wheat. However, it can lead to the loss of yield, especially when it is sprayed at late booting stage.

[2] = tested on: table grape (Flame variety); test: Table grape (Flame variety) field trial, Coachella, Calif.: spray at fruit size 12 mm; conditions: sprayed at fruit size 12 mm, GA3 2.00 ppm (EBR 0.05 ppm in the combination), 100 gal water per acre
Source text: A table grape (Flame variety) trial was set up in Coachella, Calif. Typically, GA3 alone has been used as a growth stimulator on table grape at sizing (berry size 10-14 mm), but it can cause uneven ripening and size of berry. [table]

[3] = tested on: table grape (Thomson green seedless variety); test: Table grape (Thomson green seedless variety) field trial, Mecca, Calif.: spray at fruit size 12 mm; conditions: sprayed at fruit size 12 mm, GA3 4.0 ppm (EBR 0.1 ppm in the combination)
Description: A table grape (Thomson green seedless variety) trial is carried out in Mecca, Calif. Typically, GA3 alone has been used as growth stimulator on table grape at sizing (berry size 10-14 mm), but it can cause uneven ripening and size of berry. [table]

Cherry (Bing variety) = Cherry (Bing variety) field trials, Lodi, Calif.: growth regulation effects, spray at straw color; conditions: sprayed at straw color, GA3 4.0 ppm (EBR 0.1 ppm in the combination)
Description: Two Cherry (Bing variety) trials are conducted in Lodi, Calif. to compare growth regulation effects of Gibberellic acid (GA3) and Composition of GA3 and 24-epibrassinolide (EBR). Typically, GA3 alone is commonly used on cherry at straw color for the elongation of storage life, but the application of GA3 often causes uneven ripening. [table]

Row | SMILES | Effect of EBR on loss of yield caused by Ethephon [1] | Fruits picked [2] | Number of picks needed [2] | Ripening / uniformity of color and size [3] | Fruits picked ([3]; 100 gal water per acre) | Ripening / uniformity of color and size (Cherry (Bing variety)) | Fruits picked (Cherry (Bing variety); 100 gal water per acre) | Number of picks needed (Cherry (Bing variety); 100 gal water per acre)
1 | CC(C)[C@@H](C)[C@@H](O)[C@H](O)[C@@H](C)[C@H]1CC[C@H]2[C@@H]3COC(=O)[C@H]4C[C@H](O)[C@H](O)C[C@]4(C)[C@H]3CC[C@]12C [EBR, 24-epibrassinolide] | save/reverse the loss of yield | – | – | – | – | – | – | –
2 | C=C1C[C@]23C[C@@]1(O)CC[C@H]2[C@@]12C=C[C@H](O)[C@@](C)(C(=O)O1)[C@H]2[C@@H]3C(=O)O [GA3, Gibberellic acid] | – | Picked 90% of fruits | four | the uneven ripening | Picked 85% of fruits | the uneven ripening | Picked 85% of fruits | four
